According to US8440724B2, “Inhibiting neurotransmitter reuptake” (Mayo Foundation for Medical Education and Research, priority 2008, dated 2013):

Tests used:
mouse SERT = molecular target: T1, mouse SERT (Mus musculus, UniProt Q60857); assay: Competition binding against [3H]citalopram, mouse cortex tissue; conditions: mouse brain tissue (cortex), FIG. 10G vs Table 2
T1 construct: from tissue; host or cells: mouse cortex
Description: (§1) FIGS. 10A-D contain graphs plotting activity levels (counts/6 minutes) for mice treated with the indicated compound at the indicated amount. […] Each group of mice included between three and seven mice. FIGS. 10F is a line graph plotting the competition binding of the indicated compound against [^3H]nisoxetine for mouse hippocampus tissue. FIGS. 10G is a line graph plotting the competition binding of the indicated compound against [^3H]citalopram for mouse cortex tissue. FIG. 10H is a bar graph plotting the duration of immobility (seconds) during a tail suspension test of mice intraperitoneally (ip) or per os (po; orally) treated with 5 mg/kg of the indicated compound. […] Each group of mice included between seven and nine mice.

mouse NET = molecular target: T2, mouse NET (Mus musculus, UniProt O55192); assay: Competition binding against [3H]nisoxetine, mouse hippocampus tissue; conditions: mouse brain tissue (hippocampus), FIG. 10F vs Table 2
T2 construct: from tissue; host or cells: mouse hippocampus
Description: as §1

T2 sequence (O55192 whole entry): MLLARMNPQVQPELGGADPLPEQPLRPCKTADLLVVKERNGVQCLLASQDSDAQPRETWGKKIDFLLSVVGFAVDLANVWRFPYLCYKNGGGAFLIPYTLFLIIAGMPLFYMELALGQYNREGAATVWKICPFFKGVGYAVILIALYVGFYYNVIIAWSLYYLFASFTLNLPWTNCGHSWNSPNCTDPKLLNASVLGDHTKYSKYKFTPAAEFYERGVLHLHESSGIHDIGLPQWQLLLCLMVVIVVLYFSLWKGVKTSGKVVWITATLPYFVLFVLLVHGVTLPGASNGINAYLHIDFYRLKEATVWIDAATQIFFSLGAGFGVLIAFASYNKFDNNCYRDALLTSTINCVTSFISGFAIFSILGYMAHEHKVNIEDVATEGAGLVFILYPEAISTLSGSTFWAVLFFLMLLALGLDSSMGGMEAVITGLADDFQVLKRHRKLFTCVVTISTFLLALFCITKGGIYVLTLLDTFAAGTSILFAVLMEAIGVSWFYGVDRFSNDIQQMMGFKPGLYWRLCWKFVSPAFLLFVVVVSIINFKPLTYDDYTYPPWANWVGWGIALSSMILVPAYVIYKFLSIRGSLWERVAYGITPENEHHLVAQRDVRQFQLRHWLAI
T1 sequence (Q60857 whole entry): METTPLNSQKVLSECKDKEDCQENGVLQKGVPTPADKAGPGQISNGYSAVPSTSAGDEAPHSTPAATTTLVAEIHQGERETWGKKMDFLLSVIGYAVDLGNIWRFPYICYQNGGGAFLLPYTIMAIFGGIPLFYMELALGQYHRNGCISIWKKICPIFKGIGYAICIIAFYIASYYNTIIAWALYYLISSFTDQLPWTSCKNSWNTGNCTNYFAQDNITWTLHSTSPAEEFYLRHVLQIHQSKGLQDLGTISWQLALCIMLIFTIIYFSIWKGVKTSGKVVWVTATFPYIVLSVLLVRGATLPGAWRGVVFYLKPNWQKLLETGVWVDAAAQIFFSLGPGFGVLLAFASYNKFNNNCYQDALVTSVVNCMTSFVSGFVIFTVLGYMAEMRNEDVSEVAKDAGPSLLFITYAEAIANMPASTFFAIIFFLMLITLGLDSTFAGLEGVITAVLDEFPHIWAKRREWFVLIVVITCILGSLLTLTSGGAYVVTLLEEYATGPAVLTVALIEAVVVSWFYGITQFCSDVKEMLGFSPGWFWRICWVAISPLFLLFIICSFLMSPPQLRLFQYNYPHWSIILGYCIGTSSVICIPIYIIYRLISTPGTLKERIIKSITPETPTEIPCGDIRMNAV

## CN(C)C[C@H](c1ccc2ccccc2c1)[C@H](N)c1ccccc1 [MCJ002-NH2-SS, (2S,3S)-N1,N1-dimethyl-2-(naphthalen-2-yl)-3-phenylpropane-1,3-diamine]
Mouse SERT
  Potency at mouse SERT as compared to human SERT: about the same potency at mouse SERT
Mouse NET
  Potency at mouse NET as compared to potency at human NET: 10 fold weaker
